Reference: US10457639B2, “Fluorescent regulators of RASSF1A expression and human cancer cell proliferation” (GEORGETOWN UNIVERSITY, priority 2008, dated 2019)

Legend:
PC-3 cells = test: BrdU labeling, DNA synthesis (Cell Proliferation ELISA BrdU); type: cell-based, human; conditions: 5 μM compound, 24 hours
Description: PC-3 cells were plated in 96-well plates and treated with 5 μM of compound. After 24 hours, the cells were assayed for BrdU labeling using the Cell Proliferation ELISA BrdU kit from Roche; background BrdU incorporation levels (absent anti-BrdU-peroxidase solution) were subtracted and values were normalized to those of control untreated cells.
BrdU Labeling. For the BrdU experiment, PC-3 cells were seeded in 96-well plates at a density of 2×10^3 cells/well, treated with 5 μM of compound for 24 hr and assayed BrdU using the Cell Proliferation ELISA BrdU (chemiluminescence) (Roche Diagnostics, IN) kit according to the manufacturer's protocol. Briefly, 10 μL of 100 μM BrdU labeling solution was added to the cultured cells and were incubated for 1 hr at 37° C., the labeling solution was removed and the FixDenat solution provided with the kit was added for 30 min and incubated at room temperature. Cells were then incubated with anti-BrdU conjugated to peroxidase (1:1500) for 60 min. Finally, the plates were washed and 100 μL of substrate solution was added to each well, and the light emission was measured using a microplate luminometer (Harta Instruments, Inc., Gaithersburg, Md.).
To assess the levels of DNA synthesis within cells treated with mahanine compared to those treated with compounds 6-10, cultured cells were treated according to standard procedure with 5-bromo-2-deoxy-uridine (BrdU) after 24 hours of treatment (FIG. 2).

RASSF1A = test: RT-PCR of RASSF1A mRNA in treated PC-3 cells; type: cell-based, human; conditions: 5 μM, 24 hours
Description: Representative photograph of an experiment repeated thrice. PC-3 cells were treated 24 hours with either 15 μM for compounds 6, 7, 7a, 8, 9, 10 or 5 μM for compound KED-4-69 (compound 6a) before RNA extraction and RT-PCR amplification.
Reverse Transcriptase-polymerase Chain Reaction (RT-PCR). From PC-3 cells incubated 24 hours with either 15 μM of compound 6, 7, 7a, 8, 9, 10 or 5 μM of KED-4-69 (compound 6a), RNA was extracted with TRIzol solution (Invitrogen, Carlsbad, Calif.) and genes of interest were amplified using 500 ng of total RNA reverse-transcribed to cDNA using a Superscript II kit (Invitrogen) with random hexamers. Human-specific primers were designed using the Primer Quest program and purchased from Integrated DNA Technologies, Inc. (Coralville, Iowa). Their sequences and product band sizes are: cyclin D1 forward primer 5′-[…]-3′ (SEQ ID NO:1), cyclin D1 reverse primer 5′-[…]-3′ (SEQ ID NO:2) (475 bp) and GAPDH forward primer: 5′-CCA […]-3′ (SEQ ID NO:3), GAPDH reverse primer: 5′-TCTAGACGGCAG GTCAGGTCCACC-3′ (SEQ ID NO:4) (598 bp). PCRs were initiated at 94° C. for 2 min, followed by 28 cycles of 94° C. for 1 min, 1 min annealing temperature, 72° C. for 1 min, and final extension at 72° C. for 5 min. The annealing temperature for cyclin D1 and GAPDH was 60° C. Primers and PCR conditions for RASSF1A are used as described by Rong et al. (Oncogene. 2004, 23, 8216-8230). After amplification, PCR products were separated on 1.5% agarose gels and visualized by ethidium bromide fluorescence using the Fuji LAS-1000 Imager. Images were captured and imported to Adobe Photoshop. Band intensities were quantified by using ImageJ software (NIH, Bethesda, Md.).
It has been reported that mRNA levels of RASSF1A correlate to its protein expression levels (Rong et al. Oncogene, 2004, 23: 8216-8230). To investigate the effects of the synthetic compounds on RASSF1A and cyclin D1 expression, levels of the respective mRNAs in treated cells compared to control were analyzed (FIG. 3). […] Because overexpression of cyclin D1 is associated with tumorigenicity and proliferation in a variety of tumors, including prostate cancers, this downregulation provides a cancer treatment method (Chen, Y. et al. Oncogene. 1998, 16, 1913-1920; Musgrove, E. A. et al. Proc. Natl. Acad. Sci. USA. 1994, 91, 8022-8026).

DNMT3a = target: T1, DNMT3a (Homo sapiens, UniProt Q9Y6K1); test: Multiphoton laser imaging, DNMT3a antibody staining; type: cell-based; conditions: PC-3 cells, 5 μM (data not shown)
T1 construct: treated with propidium iodide (nuclear localization) and DNMT3a or DNMT3b; endogenous in cells; host or cells: PC-3 human prostate cancer cells
T1 sequence (Q9Y6K1 whole entry, looked up): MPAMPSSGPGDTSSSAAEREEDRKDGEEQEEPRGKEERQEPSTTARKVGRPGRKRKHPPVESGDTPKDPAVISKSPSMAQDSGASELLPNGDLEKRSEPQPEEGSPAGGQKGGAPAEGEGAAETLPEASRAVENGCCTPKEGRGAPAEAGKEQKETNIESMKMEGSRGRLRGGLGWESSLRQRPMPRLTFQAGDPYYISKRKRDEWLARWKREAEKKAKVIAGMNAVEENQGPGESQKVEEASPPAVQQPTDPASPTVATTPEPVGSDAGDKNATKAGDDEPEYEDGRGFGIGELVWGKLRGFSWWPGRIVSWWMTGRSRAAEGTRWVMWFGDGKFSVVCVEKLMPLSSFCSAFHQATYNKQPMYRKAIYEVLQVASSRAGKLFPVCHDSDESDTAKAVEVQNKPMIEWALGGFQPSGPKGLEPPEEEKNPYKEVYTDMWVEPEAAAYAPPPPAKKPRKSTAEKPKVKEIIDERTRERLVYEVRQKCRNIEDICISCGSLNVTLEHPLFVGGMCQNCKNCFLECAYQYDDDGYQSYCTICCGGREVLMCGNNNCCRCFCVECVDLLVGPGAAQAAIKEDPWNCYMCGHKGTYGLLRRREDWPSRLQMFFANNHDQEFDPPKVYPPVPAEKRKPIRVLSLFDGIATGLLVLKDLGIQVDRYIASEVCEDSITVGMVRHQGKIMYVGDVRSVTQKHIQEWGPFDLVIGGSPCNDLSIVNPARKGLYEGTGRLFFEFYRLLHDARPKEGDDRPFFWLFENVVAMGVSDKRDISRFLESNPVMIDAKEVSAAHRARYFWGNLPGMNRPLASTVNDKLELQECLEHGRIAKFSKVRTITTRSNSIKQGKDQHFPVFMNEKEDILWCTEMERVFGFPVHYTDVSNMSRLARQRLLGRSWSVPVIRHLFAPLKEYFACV
Description: Multiphoton laser imaging. After incubating slides with a fibronectin/cortactin solution for 30 minutes, PC-3 cells were plated onto the slides and incubated overnight. The cells were then treated with a 5 μM solution of compound 6a or DMSO control and incubated for 1-6 hour before washing with PBS. The slides were fixed with a 4% formaldehyde solution, washed with PBS then treated with propidium iodide (nuclear localization) and DNMT3a or DNMT3b. The compound was excited at 725 nm with a multiphoton laser and imaged with a 500-550 nm filter.
The dansyl moiety present in compound 6a allows it to visibly fluoresce at 552 nm when excited at 370 nm (FIG. 4A). After treating PC-3 cells with compound 6a, a multiphoton laser was used to excite the compound, and its emission from within the cells was observed by confocal microscopy (FIG. 4B-D). […] To further confirm the hypothesis that compound 6a interaction with DNMT is a crucial factor in the ultimate up-regulation of RASSF1A, the cell samples were stained with antibodies for the DNMT isoforms known to shuttle between the nucleus and the cytoplasm, DNMT3a and DNMT3b (Kim et al., EMBO J, 2002, 21: 4183-4195; Majumber et al., JBC, 2002, 277: 16048-16058). […] Thus, cytoplasmic sequestering of DNMT3b is implied as a mode of action for compound 6a.

wild-type Balb/c mice = test: Acute oral toxicity up-and-down procedure; type: in vivo
Description: Animals. Balb/c mice and athymic Balb/c nude mice were purchased from the National Cancer Institute (NCI). Animals were housed 4-6 per cage with microisolater tops and provided food (Furina mice chow) and water ad libitum. The light cycle was regulated automatically (12 hours light/dark cycle) and temperature was maintained at 23±1° C. All animals were allowed to acclimate to this environment for one week prior to experimental manipulations. The Georgetown University Animal Care and Use Committee approved all animal studies in accordance with the guidelines adopted by the National Institute of Health.
This provided an ample therapeutic index of >55 at a starting efficacy dose of 10 mg/kg. Athymic Balb/c nude mice with human prostate tumor xenografts were dosed via intraperitoneal injection with 10 mg/kg of compound 6a once a day every other day for 25 days. Control mice were dosed with vehicle alone. Compound 6a reduced tumor volume by roughly 40% compared to control over 25 days (FIG. 8).

Compound: COc1ccc2c(c1)[nH]c1c(C)c(OS(=O)(=O)c3cccc4c(N(C)C)cccc34)ccc12 [Compound 6a, 7-Methoxy-1-methyl-9H-carbazol-2-yl 5-(dimethylamino)naphthalene-1-sulfonate]
- DNA synthetic ability (BrdU labeling) (PC-3 cells): decrease in DNA synthetic ability
- RASSF1A mRNA level versus control (RASSF1A): significant increase in RASSF1A
- DNMT3a localization (DNMT3a): No corresponding effect was seen with DNMT3a
- therapeutic index (wild-type Balb/c mice; 550 mg/kg without toxicity versus starting efficacy dose of 10 mg/kg): > 55
- acute oral toxicity (wild-type Balb/c mice; wild-type Balb/c mice dosed up to 550 mg/kg, oral): no toxicity was observed
